The numbers were not newly measured in paper PMC7664160 (ACS infectious diseases, 2020), which cites them from elsewhere.

The test system of this data set is intracellular C. neoformans.

For the compound `OC(Cn1cncn1)(Cn1cncn1)c1ccc(F)cc1F` [fluconazole], the “fungicidal activity against intraphagocytic C. neoformans” value was “neither fluconazole nor amphotericin B have fungicidal activity”.

For the compound `C[C@@H]1[C@H](O)[C@@H](C)/C=C/C=C/C=C/C=C/C=C/C=C/C=C/[C@H](O[C@@H]2O[C@H](C)[C@@H](O)[C@H](N)[C@@H]2O)C[C@@H]2O[C@](O)(C[C@@H](O)C[C@@H](O)[C@H](O)CC[C@@H](O)C[C@@H](O)CC(=O)O[C@H]1C)C[C@H](O)[C@H]2C(=O)O` [amphotericin B], the “fungicidal activity against intraphagocytic C. neoformans” value is reported as “neither fluconazole nor amphotericin B have fungicidal activity”.
